The results in this text go back to a melting point compilation (Tetko et al.).

Peptide text beside a SMILES is read from it. Where only a bound is given, the exact number is not on record here.

As to `CCOC(=O)c1c2ccccc2nn1C`, the melting point lay within 50 to 52 °C.
Next, `Cc1nc(-c2ccc(Br)cc2)cs1`: 130 to 135 °C; `CNCc1ccc(N2CCOCC2)s1`: 38 to 39 °C.
`CC(=O)CC(=O)CC(C)=O` returned a melting point of 49 °C.
Next, `CC(C)C(C)C(C)(C)C` (stereo unspecified): -121 °C.
Next, `CCCCCC(=O)CC(C)=O`: -18 °C; `COC(=O)CCc1ccc2c(c1)CCC(=O)N2`: 134 °C.
Next, `Cc1ccc(C(N)=O)cc1C`: 107 to 109 °C.
In the case of `C#CC(C)(O)CC` (stereo unspecified), the melting point turned out to be 30.5 °C.
Next, `CCCCCCC(C)OC(=O)COc1nc(F)c(Cl)c(N)c1Cl` (stereo unspecified): 59 °C.
As for `Cc1cc(N2CCNCC2)c2ccccc2n1`, the figure is 101 to 103 °C; as for `N#CC1(c2c(F)cccc2Cl)CCCCC1`, 76 to 81 °C.
Next, `O=C1OC(c2ccc(OP(=O)(O)O)cc2)(c2ccc(OP(=O)(O)O)cc2)c2ccccc21`: 198 °C; `CC(=O)Oc1ccc(C(=C2CCCCC2)c2ccc(OC(C)=O)cc2)cc1`: 136 °C.
With `c1ccc(Nc2nc3ccccc3[nH]2)nc1`, the melting point is 257 to 259 °C.
Next, `CNc1c(C=O)c(=O)n(C)c(=O)n1C`: 203 °C.
Consider `O=c1[nH]c2ccc([N+](=O)[O-])cc2[nH]1`, for which the melting point was in the range of 314 to 317 °C.
Next, `CCOC(=O)c1c[nH]c(=O)nc1C(F)(F)F`: 165 °C.
Compound `COc1ccc(C(C)=O)cc1[N+](=O)[O-]` came in with a melting point of 98 °C.
Next, `Cc1ccc(NN=C2C(=O)NN(c3ccccc3)C2=O)cc1`: 277 °C.
Next, `CCCN=C=O`: -30 °C.
As for `COc1ccc(C2Nn3c(nnc3-c3ccc([N+](=O)[O-])cc3)S2)cc1` (stereo unspecified), the figure is 153 °C; as for `CC(=O)C=CC1C(C)=CCC(C)C1(C)C` (stereo unspecified), under 25 °C; as for `CCOC(=O)c1c(SC)nn(S(=O)(=O)c2ccc(C)cc2)c1N`, 151 to 153 °C.
Take `CCOC(=O)Cc1ccccc1Br`: the melting point was 37 °C.
As for `CC1(C)CCCCC1O` (stereo unspecified), the figure is 8 °C; as for `CCOC(=O)N1CCC2(CC1)C(=O)N(CO)CN2c1ccccc1`, 134 to 139 °C; as for `Nc1ccc(I)cc1Cl`, 73 to 75 °C.
As for `CCCCCCCCCCCCC#CC#CCCCCCCCCC(=O)O`, the figure is 64 °C; as for `O=C(O)c1cc(O)c2ccccc2n1`, 282 °C.
As for `COc1ccc(C=O)c(OC)c1OC`, the figure is 40 °C; as for `ClCCOCOCCCl`, -32 °C; as for `CCOC(=O)c1c(SC)nn(C(=O)Cc2ccccc2)c1N`, 120 °C.
Compound `CCC(Br)(CC)C(=O)NC(=O)NC(C)=O` gave a melting point of 109 °C.
`COCCCNc1nc(NCCCOC)nc(SC)n1`: the melting point came to 55 °C.
Next, `CC(=O)N1CC(O)CC1C(=O)O` (stereo unspecified): 132 °C; `CC(C)CC(C)O` (stereo unspecified): -90 °C; `CSc1nc(N)nc(C(C)C)n1`: 127 to 130 °C.
Next, `CN(C)c1ccc(/C=C(/C#N)c2nc(-c3ccc(Cl)cc3)cs2)cc1`: 133 °C.
As for `CCC(C)S` (stereo unspecified), the figure is -165 °C.
`CCCCCCCC(=O)OC(=O)CCCCCCC` yielded a melting point of -1 °C.
As for `COC(=O)[C@@H](CC(=O)O)C1CCCCC1`, the figure is 47.9 °C; as for `O=C1CCC(C(=O)O)=NN1`, 199 to 200 °C; as for `CC/C=C\C(C)(C)C`, -137 °C.
Regarding `CCOC(=O)c1c[nH]c(=S)[nH]c1=O`, the melting point was 252 °C.
Next, `CCOC(=O)c1[nH]c(C)cc1C`: 125 to 126 °C.
Compound `COC1=C(OC)/C(=C/C2CCC=CC23OC(=O)C(OC)=C3OC)OC1=O` (stereo unspecified) came in with a melting point of 118 to 120 °C.
As for `CCN(CCO)c1cccc(C)c1`, the figure is -19 °C.
Next, `CC(=O)Nc1ccc(C(=O)C2CCNCC2)cc1`: 171 to 173 °C; `CCOC1OC(C(N)=O)=CC(C)C1Br` (stereo unspecified): 131 °C.
`CCCCCCCCCCCCCCCCC(=O)OCC` displayed a melting point of 28 °C.
As for `CCOC(=O)C(=C(C)OC(=O)c1ccccc1)c1cc(C(C(=O)OCC)=C(C)OC(=O)c2ccccc2)c([N+](=O)[O-])cc1[N+](=O)[O-]`, the figure is 167 °C.
`O=C(O)/C(=C\c1ccccc1)c1ccccc1[N+](=O)[O-]`: the melting point worked out at 192 °C.
As for `Cc1cc(O)c(Cc2c(O)cc(C)oc2=O)c(=O)o1`, the figure is 248 to 250 °C; as for `O=C(c1ccccn1)C(O)c1ccccn1` (stereo unspecified), 151 to 158 °C; as for `Cc1ccncc1CNC(=O)c1ccccc1`, 112 °C.
Next, `CC1=NN(CN2CCCCC2)C(=O)/C1=N\Nc1ccc(Cl)cc1Cl`: 122 to 124 °C; `N#Cc1ccc(C=Cc2ccccc2C=NNc2ccccc2)c([N+](=O)[O-])c1`: 182 °C; `COc1ccc2c(-c3ccccc3)c(-c3ccccc3)[nH]c2c1`: 210 to 214 °C.
`CC(=O)N1C(=O)N(C(C)=O)C2C1N(C(C)=O)C(=O)N2C(C)=O` (stereo unspecified) gave a melting point of 234 to 238 °C.
Next, `Cc1ccc2sc(C=O)cc2c1`: 98 to 99 °C; `CC(=O)CC(=O)Nc1ccc(-c2ccc(NC(=O)CC(C)=O)c(C)c2)cc1C`: 212 °C; `Cn1cnc2c(N)ncnc21`: 300 to 302 °C.
Next, `C=C(C)CCCCCCCCCCC`: -22 °C.
As for `CC(=O)Nc1ccc(N=Nc2cc(C(C)C)c(N=Nc3ccc(NC(C)=O)cc3)cc2C)cc1`, the figure is 284 °C; as for `CC(=S)Nc1ccccc1`, 77.5 °C; as for `CC(=O)Oc1cccc(I)c1`, 38 °C.
With `CN(C)CCCN1c2ccccc2S(=O)c2ccc(Cl)cc21` (stereo unspecified), the melting point came out at 115 °C.
The compound `Brc1cnc(N2CCCCC2)nc1OCc1ccccc1` yielded a melting point of 107 °C.
Next, `CCOCCOCCOC(C)=O`: -25 °C.
Compound `CCC(C)CC` displayed a melting point of -118 °C.
As to `O=C(O)c1cc2ccccn2n1`, the melting point lay within 189 to 192 °C.
For `COc1ccc(C=CC(=O)OCCOc2ccc(C=CC(=O)c3ccccc3)cc2)cc1`, the melting point worked out at 142 °C.
Compound `COc1cc2c(cc1O)C(Cc1ccc(O)cc1)NCC2` (stereo unspecified) yielded a melting point of 220 °C.
Next, `Nc1nc(O)nc2[nH]ncc12`: 320 °C; `CCCCCCCCCCOc1ccc(C(C)=O)cc1`: 35 to 37 °C.
Next, `O=[N+]([O-])c1ccc(OC2OC(CO)C(O)C(O)C2O)cc1` (stereo unspecified): 211 °C; `O=C(O)C1CCN(c2ncnc3ccsc23)CC1`: 248 to 249 °C; `COC(=O)c1cc2cc(S(C)(=O)=O)ccc2[nH]1`: 175 to 179 °C.
Next, `N#Cc1cccc(-n2cccc2C=O)c1`: 139 to 141 °C.
`COc1ccc2c3c([nH]c2c1)C1CC2C(CC(O)C(OC)C2C(=O)O)CN1CC3` (stereo unspecified): the melting point came to 242 °C.
Next, `Nc1cccc(-c2cnco2)c1`: 92 to 95 °C; `N#Cc1cc2ccccc2cc1C#N`: 253 to 257 °C.
As for `Fc1ccc(C2(Cn3cncn3)OC2c2ccccc2Cl)cc1` (stereo unspecified), the figure is 137 °C.
As for `NC(=O)COc1ccccc1`, the figure is 102 °C; as for `N[C@@H](CC(=O)O)C(=O)N[C@@H](Cc1ccccc1)C(=O)O` (H-Asp-Phe-OH), 236 to 239 °C; as for `O=C(Oc1ccc(OC(=O)c2ccccc2)cc1)c1ccccc1`, 115 °C.
The compound `Cc1ccc(NC(=O)C(O)C(O)C(=O)O)cc1` (single isomer, unassigned; (-)) yielded a melting point of 191 to 192 °C.
Next, `N#Cc1ccc(N)c(N)c1`: 144 to 145 °C; `Cc1cc(Cl)ccc1[N+](=O)[O-]`: 23 to 25 °C; `COC1OC(COC(C)=O)C(OC2OC(COC(C)=O)C(OC(C)=O)C(OC(C)=O)C2OC(C)=O)C(OC(C)=O)C1OC(C)=O` (stereo unspecified): 131 °C.
Next, `COc1ccc2c(=O)c3ccccc3oc2c1CN1CCCCC1`: 160 °C; `O=Cc1ccccc1-n1cccn1`: 58 °C; `Nc1ccc(SC(F)(F)F)c(Cl)c1`: 43 °C.
Next, `Cn1ccc2cc(C(=O)O)ccc21`: 221 to 223 °C.
With `Clc1cc2c(cc1Cl)Oc1c(cc(Cl)c(Cl)c1Cl)O2`, the melting point turned out to be 240 °C.
Compound `OC1C2CC3CC(C2)CC1C3` (stereo unspecified) showed a melting point of 301 °C.
As for `NC(=S)NCCc1ccccc1`, the figure is 150 to 152 °C; as for `O=[N+]([O-])c1cnccc1O`, 271 to 273 °C.
As for `N#CCc1ccc2ccccc2c1`, the figure is 78 to 88 °C.
Next, `Nc1ccc(N)c2c1C(=O)c1cccc([N+](=O)[O-])c1C2=O`: 257 °C.
Consider `Nc1c(Br)cccc1Br`, for which the melting point is 87.5 °C.
As for `COc1ccc2cnc(C)cc2c1`, the figure is 115 °C.
Next, `FC(F)(F)c1cccnc1Cl`: 39 °C.
Next, `COC(=O)c1cccc(C)c1O`: 29 °C.
With `NNC(=O)C1SCCN1S(=O)(=O)c1ccc(Cl)cc1` (stereo unspecified), the melting point lay in the range of 200 to 201 °C.
As for `OC1OC(COCc2ccccc2)C(OCc2ccccc2)C(OCc2ccccc2)C1OCc1ccccc1` (stereo unspecified), the figure is 152 °C; as for `Cc1ccc(-c2ccc(C=C3C(=O)OC(C)(C)OC3=O)o2)cc1`, 166 °C.
The compound `COc1ccc(CO)c(OC)c1` gave a melting point of 37 to 40 °C.
Next, `COc1cc(O)c2c(=O)cc(-c3ccc(O)cc3)oc2c1`: 289 °C; `CC(=O)CCc1ccc2c(c1)N(C(=O)c1ccccc1)C(C)CC2` (stereo unspecified): 74 °C.
